Experimental data from ChEMBL document CHEMBL1933032, “Synthesis and evaluation of 4-alkoxy-[1'-cyclobutyl-spiro(3,4-dihydrobenzopyran-2,4'-piperidine)] analogues as histamine-3 receptor antagonists” (Bioorg Med Chem Lett, 2012).
One block for each compound: values may come before it.

Tests used:
Histamine H3 receptor [1] = biological target: Histamine H3 receptor (Rattus norvegicus, UniProt Q9QYN8); test: Binding affinity to rat histamine H3 receptor
Histamine H3 receptor [2] = biological target: Histamine H3 receptor (Homo sapiens, UniProt Q9Y5N1); test: Binding affinity to human histamine H3 receptor
Cytochrome P450 2D6 = Cytochrome P450 2D6 (Homo sapiens, UniProt P10635); test: Inhibition of CYP2D6; type: ADME
[3] = Volume of distribution in rat at 1 mg/kg, iv; type: ADME, organism-based; set-up: dose 1 mg/kg, route intravenous; conditions: in vivo
Histamine H2 receptor = Histamine H2 receptor (Homo sapiens, UniProt P25021); test: Binding affinity to human histamine H2 receptor
[4] = Half life in human liver microsomes; type: ADME, Microsome
[5] = Half life in rat liver microsomes; type: ADME, Microsome
[6] = Cmax in rat at 5 mg/kg, po; type: ADME, organism-based; set-up: dose 5 mg/kg, route oral; conditions: in vivo
[7] = Ratio drug uptake in brain to plasma of rat at 5 mg/kg, po measured after 6 hrs; type: ADME, organism-based; set-up: dose 5 mg/kg, route oral; conditions: read-out: BPR
[8] = Clearance in rat at 1 mg/kg, iv; type: ADME, organism-based; set-up: dose 1 mg/kg, route intravenous; conditions: in vivo
[9] = AUC (0 to t) in rat at 5 mg/kg, po; type: ADME, organism-based; set-up: dose 5 mg/kg, route oral; conditions: plasma
[10] = Half life in mouse liver microsomes; type: ADME, Microsome
Histamine H4 receptor = Histamine H4 receptor (Homo sapiens, UniProt Q9H3N8); test: Binding affinity to human histamine H4 receptor
[11] = Oral bioavailability in rat at 5 mg/kg; type: ADME, organism-based; conditions: in vivo
[12] = Half life in monkey liver microsomes; type: ADME, Macaca mulatta, Microsome; conditions: rhesus monkey
[13] = Half life in rat at 1 mg/kg, iv; type: ADME, organism-based; set-up: dose 1 mg/kg, route intravenous; conditions: in vivo
Histamine H1 receptor = Histamine H1 receptor (Homo sapiens, UniProt P35367); test: Binding affinity to human histamine H1 receptor
Cytochrome P450 2C19 = Cytochrome P450 2C19 (Homo sapiens, UniProt P33261); test: Inhibition of CYP2C19; type: ADME
Cytochrome P450 3A4 = Cytochrome P450 3A4 (Homo sapiens, UniProt P08684); test: Inhibition of CYP3A4; type: ADME
Cytochrome P450 1A2 = biological target: T1, Cytochrome P450 1A2 (Homo sapiens, UniProt P05177); test: Inhibition of CYP1A2; type: ADME
T1 sequence (P05177 whole entry): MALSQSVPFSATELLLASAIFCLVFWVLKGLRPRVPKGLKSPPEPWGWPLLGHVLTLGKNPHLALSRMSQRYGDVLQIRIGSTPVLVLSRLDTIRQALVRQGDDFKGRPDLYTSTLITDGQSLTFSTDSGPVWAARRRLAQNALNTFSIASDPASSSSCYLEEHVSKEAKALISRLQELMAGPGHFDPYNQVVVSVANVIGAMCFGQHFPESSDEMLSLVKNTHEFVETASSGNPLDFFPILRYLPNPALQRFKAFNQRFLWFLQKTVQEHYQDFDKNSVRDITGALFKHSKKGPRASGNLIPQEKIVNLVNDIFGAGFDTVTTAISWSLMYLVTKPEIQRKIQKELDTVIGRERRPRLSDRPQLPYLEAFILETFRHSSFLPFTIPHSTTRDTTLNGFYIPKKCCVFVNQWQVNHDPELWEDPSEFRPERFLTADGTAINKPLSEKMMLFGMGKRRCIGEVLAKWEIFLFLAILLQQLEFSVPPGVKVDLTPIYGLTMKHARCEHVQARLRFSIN

Cytochrome P450 2C9 = Cytochrome P450 2C9 (Homo sapiens, UniProt P11712); test: Inhibition of CYP2C9; type: ADME
[14] = Plasma protein binding in rat; type: ADME, cell-free; conditions: read-out: PPB (converted)
[15] = biological target: T2, Alpha-1D adrenergic receptor (Homo sapiens) (UniProt P25100); test: Inhibition of adrenergic Alpha-1D receptor at 10 uM
T2 sequence (whole entry): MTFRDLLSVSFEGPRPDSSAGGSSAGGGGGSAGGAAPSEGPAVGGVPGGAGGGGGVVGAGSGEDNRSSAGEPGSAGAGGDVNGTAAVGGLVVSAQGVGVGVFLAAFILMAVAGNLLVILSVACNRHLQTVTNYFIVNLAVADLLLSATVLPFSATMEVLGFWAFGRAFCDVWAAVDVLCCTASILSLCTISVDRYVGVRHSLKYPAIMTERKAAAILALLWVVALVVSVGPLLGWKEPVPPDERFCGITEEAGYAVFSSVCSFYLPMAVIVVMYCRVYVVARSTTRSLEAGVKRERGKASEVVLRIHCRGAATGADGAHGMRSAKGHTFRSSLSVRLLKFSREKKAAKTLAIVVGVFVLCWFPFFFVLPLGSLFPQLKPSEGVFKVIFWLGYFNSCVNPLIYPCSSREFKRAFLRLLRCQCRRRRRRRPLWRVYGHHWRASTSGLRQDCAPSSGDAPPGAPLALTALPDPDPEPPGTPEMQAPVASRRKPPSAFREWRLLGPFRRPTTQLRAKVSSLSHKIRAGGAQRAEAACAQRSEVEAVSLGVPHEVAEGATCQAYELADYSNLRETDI

[16] = biological target: T3, Alpha-2C adrenergic receptor (Homo sapiens) (UniProt P18825); test: Inhibition of adrenergic Alpha-2C receptor at 10 uM
T3 sequence (whole entry): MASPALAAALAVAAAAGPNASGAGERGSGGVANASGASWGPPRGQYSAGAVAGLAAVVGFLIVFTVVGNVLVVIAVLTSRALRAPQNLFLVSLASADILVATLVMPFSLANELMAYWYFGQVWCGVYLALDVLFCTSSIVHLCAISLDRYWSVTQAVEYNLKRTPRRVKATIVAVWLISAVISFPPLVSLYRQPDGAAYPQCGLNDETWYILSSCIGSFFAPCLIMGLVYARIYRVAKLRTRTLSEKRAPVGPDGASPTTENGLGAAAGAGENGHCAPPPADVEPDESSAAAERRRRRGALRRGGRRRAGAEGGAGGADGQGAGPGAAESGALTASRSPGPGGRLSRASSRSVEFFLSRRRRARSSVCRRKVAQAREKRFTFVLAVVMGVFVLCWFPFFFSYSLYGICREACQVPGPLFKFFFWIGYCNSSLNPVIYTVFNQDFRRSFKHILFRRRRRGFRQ

[17] = Inhibition of nACh receptor at 10 uM
[18] = Fraction unbound in rat brain homogenate; type: ADME, tissue-based
Rattus norvegicus = test: Inhibition of RAMH-induced dipsogenia in rat at 3 mg/kg, po; type: functional
[19] = Plasma protein binding in human; type: ADME, cell-free; conditions: read-out: PPB (converted)

Chain of Histamine H3 receptor (Rattus norvegicus, UniProt Q9QYN8) (Q9QYN8 whole entry): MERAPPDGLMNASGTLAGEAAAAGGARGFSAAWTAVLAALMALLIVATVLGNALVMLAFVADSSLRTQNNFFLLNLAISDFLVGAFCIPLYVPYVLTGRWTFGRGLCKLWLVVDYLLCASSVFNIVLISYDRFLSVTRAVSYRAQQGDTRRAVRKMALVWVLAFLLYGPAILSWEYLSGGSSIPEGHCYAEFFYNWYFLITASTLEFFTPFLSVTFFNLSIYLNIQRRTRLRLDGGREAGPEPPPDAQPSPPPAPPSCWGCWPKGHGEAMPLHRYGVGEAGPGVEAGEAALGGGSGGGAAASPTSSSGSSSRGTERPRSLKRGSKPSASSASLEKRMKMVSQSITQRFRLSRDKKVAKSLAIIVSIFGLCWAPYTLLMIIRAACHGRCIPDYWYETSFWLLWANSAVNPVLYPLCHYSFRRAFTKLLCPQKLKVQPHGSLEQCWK
Chain of Histamine H1 receptor (P35367 whole entry): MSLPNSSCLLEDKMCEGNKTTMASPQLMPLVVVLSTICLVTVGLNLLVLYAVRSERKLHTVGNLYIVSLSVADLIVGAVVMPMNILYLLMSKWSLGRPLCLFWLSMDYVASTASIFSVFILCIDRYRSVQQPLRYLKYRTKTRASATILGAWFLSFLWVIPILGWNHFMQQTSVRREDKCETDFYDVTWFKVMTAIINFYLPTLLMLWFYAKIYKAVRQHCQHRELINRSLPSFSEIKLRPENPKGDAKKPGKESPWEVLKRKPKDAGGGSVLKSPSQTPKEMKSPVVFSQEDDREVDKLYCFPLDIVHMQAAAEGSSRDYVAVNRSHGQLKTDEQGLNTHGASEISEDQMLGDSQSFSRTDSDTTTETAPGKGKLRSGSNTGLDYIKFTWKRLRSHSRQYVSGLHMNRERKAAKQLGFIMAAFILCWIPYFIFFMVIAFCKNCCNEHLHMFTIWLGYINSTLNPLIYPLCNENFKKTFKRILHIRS
Chain of Histamine H3 receptor (Homo sapiens, UniProt Q9Y5N1) (Q9Y5N1 whole entry): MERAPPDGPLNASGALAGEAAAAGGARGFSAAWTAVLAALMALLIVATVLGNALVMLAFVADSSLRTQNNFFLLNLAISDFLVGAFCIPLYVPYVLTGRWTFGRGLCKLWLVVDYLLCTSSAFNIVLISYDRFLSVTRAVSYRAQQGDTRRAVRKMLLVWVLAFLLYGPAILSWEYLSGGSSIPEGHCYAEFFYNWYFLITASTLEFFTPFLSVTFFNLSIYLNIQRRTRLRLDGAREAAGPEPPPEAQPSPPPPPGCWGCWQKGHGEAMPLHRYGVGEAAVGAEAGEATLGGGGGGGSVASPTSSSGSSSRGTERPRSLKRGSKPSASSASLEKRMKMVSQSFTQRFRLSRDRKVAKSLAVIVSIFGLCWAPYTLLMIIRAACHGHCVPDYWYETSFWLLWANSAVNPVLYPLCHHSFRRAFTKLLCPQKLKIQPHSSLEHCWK
Chain of Cytochrome P450 2D6 (P10635 whole entry): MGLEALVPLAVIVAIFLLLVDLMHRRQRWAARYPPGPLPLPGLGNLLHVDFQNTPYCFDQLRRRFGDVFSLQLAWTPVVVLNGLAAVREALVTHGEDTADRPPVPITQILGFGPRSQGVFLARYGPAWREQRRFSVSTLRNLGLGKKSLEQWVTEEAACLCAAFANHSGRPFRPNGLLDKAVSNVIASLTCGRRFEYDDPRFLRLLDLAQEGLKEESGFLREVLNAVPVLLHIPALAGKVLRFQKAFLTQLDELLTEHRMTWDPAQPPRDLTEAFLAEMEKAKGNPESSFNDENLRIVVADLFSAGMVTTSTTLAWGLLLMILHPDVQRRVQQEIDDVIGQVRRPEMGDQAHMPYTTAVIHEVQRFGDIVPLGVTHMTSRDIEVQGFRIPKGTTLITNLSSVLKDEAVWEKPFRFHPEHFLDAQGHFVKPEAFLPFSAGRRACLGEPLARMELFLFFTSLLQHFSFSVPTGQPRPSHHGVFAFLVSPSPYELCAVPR
Chain of Histamine H2 receptor (P25021 whole entry): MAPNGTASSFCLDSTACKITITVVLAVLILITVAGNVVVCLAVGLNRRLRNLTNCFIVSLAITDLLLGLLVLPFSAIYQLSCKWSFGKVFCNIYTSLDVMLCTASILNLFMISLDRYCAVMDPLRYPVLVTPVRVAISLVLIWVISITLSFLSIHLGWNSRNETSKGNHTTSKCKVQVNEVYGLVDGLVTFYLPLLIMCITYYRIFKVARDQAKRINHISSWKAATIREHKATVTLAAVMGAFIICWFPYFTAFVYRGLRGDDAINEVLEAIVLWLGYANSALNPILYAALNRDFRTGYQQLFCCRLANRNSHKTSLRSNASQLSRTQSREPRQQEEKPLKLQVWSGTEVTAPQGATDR
Chain of Cytochrome P450 3A4 (P08684 whole entry): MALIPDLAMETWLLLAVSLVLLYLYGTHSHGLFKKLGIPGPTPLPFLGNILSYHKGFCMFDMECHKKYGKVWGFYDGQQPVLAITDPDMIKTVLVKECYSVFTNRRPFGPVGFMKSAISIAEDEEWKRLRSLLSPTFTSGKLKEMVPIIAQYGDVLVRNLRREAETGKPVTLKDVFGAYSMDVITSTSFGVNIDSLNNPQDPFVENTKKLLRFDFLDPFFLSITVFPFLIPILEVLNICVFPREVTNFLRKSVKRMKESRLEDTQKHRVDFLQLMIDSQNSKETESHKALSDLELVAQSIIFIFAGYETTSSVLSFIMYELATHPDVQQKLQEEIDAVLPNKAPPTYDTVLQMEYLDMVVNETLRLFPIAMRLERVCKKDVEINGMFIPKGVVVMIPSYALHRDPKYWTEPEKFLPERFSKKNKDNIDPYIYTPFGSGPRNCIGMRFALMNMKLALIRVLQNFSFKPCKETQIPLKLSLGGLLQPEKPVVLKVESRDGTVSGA
Chain of Cytochrome P450 2C9 (P11712 whole entry): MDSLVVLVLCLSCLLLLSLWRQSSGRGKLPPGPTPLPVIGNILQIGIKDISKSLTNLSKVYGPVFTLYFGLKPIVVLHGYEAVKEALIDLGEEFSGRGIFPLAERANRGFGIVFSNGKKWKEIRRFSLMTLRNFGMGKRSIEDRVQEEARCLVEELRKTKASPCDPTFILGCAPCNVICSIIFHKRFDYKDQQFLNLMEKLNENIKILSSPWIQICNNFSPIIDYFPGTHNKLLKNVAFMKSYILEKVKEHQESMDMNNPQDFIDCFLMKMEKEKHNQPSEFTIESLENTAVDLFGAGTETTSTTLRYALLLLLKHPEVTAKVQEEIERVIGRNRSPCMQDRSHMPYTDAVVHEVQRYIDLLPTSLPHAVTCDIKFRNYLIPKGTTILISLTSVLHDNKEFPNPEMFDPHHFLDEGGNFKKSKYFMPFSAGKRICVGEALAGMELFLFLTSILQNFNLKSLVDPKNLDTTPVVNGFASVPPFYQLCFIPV
Chain of Cytochrome P450 2C19 (P33261 whole entry): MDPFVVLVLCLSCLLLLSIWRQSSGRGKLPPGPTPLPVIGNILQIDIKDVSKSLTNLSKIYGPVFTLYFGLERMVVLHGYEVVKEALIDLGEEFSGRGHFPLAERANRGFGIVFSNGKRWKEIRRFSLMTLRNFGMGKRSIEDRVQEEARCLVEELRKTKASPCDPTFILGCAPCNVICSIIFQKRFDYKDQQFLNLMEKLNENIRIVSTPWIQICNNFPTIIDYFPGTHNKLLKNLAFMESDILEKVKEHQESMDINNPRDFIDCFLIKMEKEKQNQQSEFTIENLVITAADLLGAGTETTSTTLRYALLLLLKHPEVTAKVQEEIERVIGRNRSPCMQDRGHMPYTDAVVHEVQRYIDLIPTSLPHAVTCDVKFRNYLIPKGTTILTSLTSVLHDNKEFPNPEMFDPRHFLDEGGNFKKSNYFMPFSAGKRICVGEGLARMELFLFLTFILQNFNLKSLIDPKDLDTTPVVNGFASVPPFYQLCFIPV

- Ki (Histamine H3 receptor [1]): 39 nM
- Ki (Histamine H3 receptor [2]): 15 nM
SMILES: c1cc2c(cc1O[C@H]1CCOC1)CCC1(CCN(C3CCC3)CC1)O2

- Ki (Histamine H3 receptor [1]): 86 nM
- Ki (Histamine H3 receptor [2]): 38 nM
SMILES: CSCCOc1ccc2c(c1)CCC1(CCN(C3CCC3)CC1)O2

- Ki (Histamine H3 receptor [1]): 62 nM
- Ki (Histamine H3 receptor [2]): 23 nM
SMILES: c1cc2c(cc1OC1CCSCC1)CCC1(CCN(C3CCC3)CC1)O2

- Ki (Histamine H3 receptor [1]): 112 nM
- Ki (Histamine H3 receptor [2]): 26 nM
SMILES: CC[C@H](O)COc1ccc2c(c1)CCC1(CCN(C3CCC3)CC1)O2

- Ki (Histamine H3 receptor [1]): 91 nM
- Ki (Histamine H3 receptor [2]): 42 nM
SMILES: COCCOc1ccc2c(c1)CCC1(CCN(C3CCC3)CC1)O2

- Ki (Histamine H3 receptor [1]): 48 nM
- Ki (Histamine H3 receptor [2]): 12 nM
SMILES: c1cc2c(cc1OCC1CCSCC1)CCC1(CCN(C3CCC3)CC1)O2

- IC50 (Cytochrome P450 2D6): 11000 nM
- Vd [3]: 3.6 L/kg
- Ki (Histamine H2 receptor): > 10000 nM
- half-life [4]: > 40 min
- half-life [5]: > 40 min
- Cmax [6]: 157 ng/mL
- Kp at 6 h [7]: 0.73
- clearance [8]: 23 mL/min/kg
- AUC(0-t) [9]: 713 ng·h/mL
- Ki (Histamine H3 receptor [1]): 9 nM
- half-life [10]: > 40 min
- Ki (Histamine H3 receptor [2]): 4 nM
- Ki (Histamine H4 receptor): > 10000 nM
- bioavailability [11]: 22%
- half-life [12]: > 40 min
- half-life [13]: 114 min
- Ki (Histamine H1 receptor): > 10000 nM
SMILES: O=S1(=O)CCC(COc2ccc3c(c2)CCC2(CCN(C4CCC4)CC2)O3)CC1

- Ki (Histamine H3 receptor [1]): 49 nM
- Ki (Histamine H3 receptor [2]): 18 nM
SMILES: c1cc2c(cc1OCC1CCOC1)CCC1(CCN(C3CCC3)CC1)O2 (stereo not drawn)

- Ki (Histamine H3 receptor [1]): 119 nM
- Ki (Histamine H3 receptor [2]): 27 nM
SMILES: c1cc2c(cc1O[C@@H]1CCOC1)CCC1(CCN(C3CCC3)CC1)O2

- Ki (Histamine H3 receptor [1]): 42 nM
- Ki (Histamine H3 receptor [2]): 15 nM
SMILES: c1cc2c(cc1OC1CCOCC1)CCC1(CCN(C3CCC3)CC1)O2

- Ki (Histamine H3 receptor [1]): 74 nM
- Ki (Histamine H3 receptor [2]): 18 nM
SMILES: CC(C)(O)COc1ccc2c(c1)CCC1(CCN(C3CCC3)CC1)O2

- Ki (Histamine H3 receptor [1]): 64 nM
- Ki (Histamine H3 receptor [2]): 15 nM
SMILES: CSCCCOc1ccc2c(c1)CCC1(CCN(C3CCC3)CC1)O2

- Ki (Histamine H3 receptor [1]): 157 nM
- Ki (Histamine H3 receptor [2]): 39 nM
SMILES: CS(=O)(=O)CCOc1ccc2c(c1)CCC1(CCN(C3CCC3)CC1)O2

- Ki (Histamine H3 receptor [1]): 42 nM
- Ki (Histamine H3 receptor [2]): 17 nM
SMILES: c1cc2c(cc1OC1CCSC1)CCC1(CCN(C3CCC3)CC1)O2 (stereo not drawn)

- IC50 (Cytochrome P450 2D6): > 30000 nM
- IC50 (Cytochrome P450 2C19): > 30000 nM
- Vd [3]: 1.2 L/kg
- Ki (Histamine H2 receptor): > 10000 nM
- IC50 (Cytochrome P450 3A4): > 30000 nM
- half-life [4]: > 40 min
- IC50 (Cytochrome P450 1A2): > 30000 nM
- half-life [5]: > 40 min
- Cmax [6]: 142 ng/mL
- Kp at 6 h [7]: 0.73
- clearance [8]: 16 mL/min/kg
- AUC(0-t) [9]: 586 ng·h/mL
- Ki (Histamine H3 receptor [1]): 41 nM
- half-life [10]: > 40 min
- Ki (Histamine H3 receptor [2]): 10 nM
- Ki (Histamine H4 receptor): > 10000 nM
- IC50 (Cytochrome P450 2C9): > 30000 nM
- bioavailability [11]: 13%
- half-life [12]: > 40 min
- half-life [13]: 54 min
- Ki (Histamine H1 receptor): > 10000 nM
SMILES: CS(=O)(=O)CCCOc1ccc2c(c1)CCC1(CCN(C3CCC3)CC1)O2

- Ki (Histamine H3 receptor [1]): 86 nM
- Ki (Histamine H3 receptor [2]): 15 nM
SMILES: CC[C@@H](O)COc1ccc2c(c1)CCC1(CCN(C3CCC3)CC1)O2

- Ki (Histamine H3 receptor [1]): 44 nM
- Ki (Histamine H3 receptor [2]): 23 nM
SMILES: O=S1(=O)CCC(Oc2ccc3c(c2)CCC2(CCN(C4CCC4)CC2)O3)C1 (stereo not drawn)

- Ki (Histamine H3 receptor [1]): 50 nM
- Ki (Histamine H3 receptor [2]): 16 nM
SMILES: c1cc2c(cc1OCC1CCCO1)CCC1(CCN(C3CCC3)CC1)O2 (stereo not drawn)

- Ki (Histamine H3 receptor [1]): 99 nM
- Ki (Histamine H3 receptor [2]): 25 nM
SMILES: CC(O)COc1ccc2c(c1)CCC1(CCN(C3CCC3)CC1)O2 (stereo not drawn)

- Ki (Histamine H3 receptor [1]): 368 nM
- Ki (Histamine H3 receptor [2]): 126 nM
SMILES: OCCOc1ccc2c(c1)CCC1(CCN(C3CCC3)CC1)O2

- IC50 (Cytochrome P450 2D6): 6600 nM
- fraction unbound [14]: 0.27
- Vd [3]: 2.8 L/kg
- Ki (Histamine H2 receptor): > 10000 nM
- inhibition [15]: 50%
- inhibition [16]: 78%
- half-life [4]: > 40 min
- inhibition [17]: 63%
- fraction unbound [18]: 0.27
- half-life [5]: > 40 min
- Cmax [6]: 460 ng/mL
- Kp at 6 h [7]: 1
- clearance [8]: 19 mL/min/kg
- AUC(0-t) [9]: 1790 ng·h/mL
- Ki (Histamine H3 receptor [1]): 24 nM
- half-life [10]: > 40 min
- Ki (Histamine H3 receptor [2]): 7 nM
- Ki (Histamine H4 receptor): > 10000 nM
- bioavailability [11]: 48%
- half-life [12]: > 40 min
- half-life [13]: 102 min
- Ki (Histamine H1 receptor): > 10000 nM
- fraction unbound [19]: 0.23
SMILES: O=S1(=O)CCC(Oc2ccc3c(c2)CCC2(CCN(C4CCC4)CC2)O3)CC1
- inhibition in vivo at 3 mg/kg (Rattus norvegicus): 61%
